Measured values as given in US9492471B2, “Methods of treating a disease or disorder associated with Bruton'S Tyrosine Kinase” (Celgene Avilomics Research, Inc., priority 2013, dated 2016).
Read-outs that look alike come from different tables or passages of the source.

Tests used:
Assay in all cases: HotSpot kinase profiling
Assay type in all cases: biochemical
CDK5/p35 = biological target: T1, CDK5/p35 (Homo sapiens, UniProt Q00535)
T1 construct: purchased Reaction Biology Corp
Method in brief: (§1)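 P81 filtration radiometric readout; 2 h incubation at room temperature; 0.1% phosphoric acid wash; DMSO negative control; % inhibition, mean of replicate runs.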

CDK6/cyclin D1 = biological target: T2, CDK6/cyclin D1 (Homo sapiens, UniProt Q00534)
T2 construct: purchased Reaction Biology Corp
T2 sequence (Q00534 whole entry): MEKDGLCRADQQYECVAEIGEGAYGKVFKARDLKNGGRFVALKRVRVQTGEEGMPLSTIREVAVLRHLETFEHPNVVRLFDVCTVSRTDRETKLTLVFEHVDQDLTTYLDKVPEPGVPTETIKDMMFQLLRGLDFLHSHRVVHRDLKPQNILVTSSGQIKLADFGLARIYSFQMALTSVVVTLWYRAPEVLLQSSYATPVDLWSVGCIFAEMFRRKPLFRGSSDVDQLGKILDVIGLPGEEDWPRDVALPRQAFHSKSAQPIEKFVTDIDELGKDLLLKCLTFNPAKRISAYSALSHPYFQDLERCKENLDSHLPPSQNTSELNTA
T2 sequence (P24385 whole entry partner): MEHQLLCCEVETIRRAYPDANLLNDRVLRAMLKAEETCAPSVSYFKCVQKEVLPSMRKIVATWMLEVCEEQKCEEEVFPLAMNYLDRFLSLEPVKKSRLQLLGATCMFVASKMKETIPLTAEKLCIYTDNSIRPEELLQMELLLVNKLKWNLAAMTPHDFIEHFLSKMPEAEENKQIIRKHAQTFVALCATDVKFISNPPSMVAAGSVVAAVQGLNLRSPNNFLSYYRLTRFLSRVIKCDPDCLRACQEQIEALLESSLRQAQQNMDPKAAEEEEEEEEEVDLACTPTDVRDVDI
Method in brief: as §1

EPHA4 = biological target: T3, EPHA4 (Homo sapiens, UniProt P54764)
T3 construct: purchased Reaction Biology Corp
T3 sequence (P54764 20-986): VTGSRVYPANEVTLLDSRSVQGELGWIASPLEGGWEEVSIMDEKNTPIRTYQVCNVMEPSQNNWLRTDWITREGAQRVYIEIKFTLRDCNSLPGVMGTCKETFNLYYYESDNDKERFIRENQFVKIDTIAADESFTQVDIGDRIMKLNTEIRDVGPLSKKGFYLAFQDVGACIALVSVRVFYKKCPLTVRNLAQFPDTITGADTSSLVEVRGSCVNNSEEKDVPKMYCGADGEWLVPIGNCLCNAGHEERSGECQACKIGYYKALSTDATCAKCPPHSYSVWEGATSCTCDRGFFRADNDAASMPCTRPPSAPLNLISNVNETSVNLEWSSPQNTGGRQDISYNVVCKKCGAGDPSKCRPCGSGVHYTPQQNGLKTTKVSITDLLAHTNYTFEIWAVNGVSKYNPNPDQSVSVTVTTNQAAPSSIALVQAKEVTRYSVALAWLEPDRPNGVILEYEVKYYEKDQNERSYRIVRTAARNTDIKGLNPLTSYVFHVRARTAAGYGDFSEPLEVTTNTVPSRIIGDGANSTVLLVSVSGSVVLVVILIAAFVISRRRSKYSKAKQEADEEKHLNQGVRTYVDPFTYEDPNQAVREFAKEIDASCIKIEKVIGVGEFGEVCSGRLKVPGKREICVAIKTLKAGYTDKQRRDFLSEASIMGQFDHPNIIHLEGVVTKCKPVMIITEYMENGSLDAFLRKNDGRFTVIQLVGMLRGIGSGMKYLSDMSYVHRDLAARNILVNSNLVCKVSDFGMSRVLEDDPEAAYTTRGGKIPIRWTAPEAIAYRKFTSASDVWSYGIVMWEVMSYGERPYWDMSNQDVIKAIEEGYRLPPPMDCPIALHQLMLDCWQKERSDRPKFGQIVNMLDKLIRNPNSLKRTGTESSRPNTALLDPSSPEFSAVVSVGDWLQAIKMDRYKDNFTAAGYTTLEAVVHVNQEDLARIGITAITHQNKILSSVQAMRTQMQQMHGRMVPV
Method in brief: as §1

GRK1 = biological target: T4, GRK1 (Homo sapiens, UniProt Q15835)
T4 construct: purchased Reaction Biology Corp
T4 sequence (Q15835 1-563): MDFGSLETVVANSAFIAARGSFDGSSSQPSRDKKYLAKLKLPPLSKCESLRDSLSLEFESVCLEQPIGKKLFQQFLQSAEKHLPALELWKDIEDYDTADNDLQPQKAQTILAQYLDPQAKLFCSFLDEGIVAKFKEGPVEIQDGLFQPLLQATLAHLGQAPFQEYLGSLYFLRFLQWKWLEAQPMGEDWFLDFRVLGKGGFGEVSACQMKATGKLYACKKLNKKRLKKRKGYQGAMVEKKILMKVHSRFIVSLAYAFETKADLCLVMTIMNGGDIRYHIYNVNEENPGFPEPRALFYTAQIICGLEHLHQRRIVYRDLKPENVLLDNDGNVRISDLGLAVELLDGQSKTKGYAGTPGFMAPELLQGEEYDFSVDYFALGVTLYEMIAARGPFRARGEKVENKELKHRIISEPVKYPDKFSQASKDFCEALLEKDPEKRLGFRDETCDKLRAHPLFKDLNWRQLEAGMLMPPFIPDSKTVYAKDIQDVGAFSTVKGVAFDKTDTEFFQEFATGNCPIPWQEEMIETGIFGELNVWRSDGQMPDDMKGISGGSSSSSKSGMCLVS
Method in brief: as §1

NEK11 = biological target: T5, NEK11 (Homo sapiens, UniProt Q8NG66)
T5 construct: purchased Reaction Biology Corp
T5 sequence (Q8NG66 1-645): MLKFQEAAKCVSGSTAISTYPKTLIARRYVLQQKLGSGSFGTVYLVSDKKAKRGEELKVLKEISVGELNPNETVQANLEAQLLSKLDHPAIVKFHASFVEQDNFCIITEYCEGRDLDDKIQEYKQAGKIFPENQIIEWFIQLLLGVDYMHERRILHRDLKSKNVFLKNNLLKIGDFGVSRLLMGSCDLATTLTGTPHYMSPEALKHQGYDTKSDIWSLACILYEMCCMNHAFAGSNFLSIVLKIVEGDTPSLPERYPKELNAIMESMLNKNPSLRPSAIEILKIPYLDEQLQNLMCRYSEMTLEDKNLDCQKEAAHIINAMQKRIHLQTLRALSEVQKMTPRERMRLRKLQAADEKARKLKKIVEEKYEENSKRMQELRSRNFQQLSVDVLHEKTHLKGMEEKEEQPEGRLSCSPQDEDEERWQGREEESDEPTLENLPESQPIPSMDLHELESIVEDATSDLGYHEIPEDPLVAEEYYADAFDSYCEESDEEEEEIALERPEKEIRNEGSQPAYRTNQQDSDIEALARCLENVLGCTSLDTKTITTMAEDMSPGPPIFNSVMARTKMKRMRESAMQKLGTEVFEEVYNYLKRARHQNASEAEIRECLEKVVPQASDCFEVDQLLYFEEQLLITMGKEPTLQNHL
Method in brief: as §1

RET = biological target: T6, RET (Homo sapiens, UniProt P07949)
T6 construct: purchased Reaction Biology Corp
T6 sequence (P07949 29-1114): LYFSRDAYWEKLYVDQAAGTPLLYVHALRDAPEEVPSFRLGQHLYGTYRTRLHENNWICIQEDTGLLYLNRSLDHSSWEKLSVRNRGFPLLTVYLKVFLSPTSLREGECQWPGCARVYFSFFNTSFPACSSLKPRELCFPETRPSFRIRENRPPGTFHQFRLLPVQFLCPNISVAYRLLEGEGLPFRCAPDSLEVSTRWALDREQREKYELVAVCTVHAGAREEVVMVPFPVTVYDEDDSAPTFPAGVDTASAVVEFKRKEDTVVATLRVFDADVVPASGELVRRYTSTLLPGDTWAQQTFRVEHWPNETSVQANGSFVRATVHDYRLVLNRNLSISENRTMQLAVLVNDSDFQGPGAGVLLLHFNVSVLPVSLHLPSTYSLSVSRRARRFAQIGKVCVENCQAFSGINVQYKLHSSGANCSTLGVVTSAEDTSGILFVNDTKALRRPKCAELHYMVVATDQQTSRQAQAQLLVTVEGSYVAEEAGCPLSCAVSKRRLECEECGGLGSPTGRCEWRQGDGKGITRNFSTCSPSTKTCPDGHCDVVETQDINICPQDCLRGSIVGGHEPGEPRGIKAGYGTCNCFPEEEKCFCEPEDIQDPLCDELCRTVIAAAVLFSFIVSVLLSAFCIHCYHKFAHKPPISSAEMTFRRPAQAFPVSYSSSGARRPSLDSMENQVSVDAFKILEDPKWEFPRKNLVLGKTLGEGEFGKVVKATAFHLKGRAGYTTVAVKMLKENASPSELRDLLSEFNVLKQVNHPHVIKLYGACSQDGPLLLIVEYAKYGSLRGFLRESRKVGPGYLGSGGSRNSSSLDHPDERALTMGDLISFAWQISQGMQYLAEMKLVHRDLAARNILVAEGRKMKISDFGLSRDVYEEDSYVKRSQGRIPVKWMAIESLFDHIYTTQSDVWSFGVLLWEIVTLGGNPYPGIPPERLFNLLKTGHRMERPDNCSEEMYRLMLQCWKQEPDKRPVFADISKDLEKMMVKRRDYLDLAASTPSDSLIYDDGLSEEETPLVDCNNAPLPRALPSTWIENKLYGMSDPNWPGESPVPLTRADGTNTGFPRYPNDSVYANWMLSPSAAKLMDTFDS
Method in brief: as §1

STK38L/NDR2 = biological target: T7, STK38L/NDR2 (Homo sapiens, UniProt Q9Y2H1)
T7 construct: purchased Reaction Biology Corp
T7 sequence (Q9Y2H1 whole entry): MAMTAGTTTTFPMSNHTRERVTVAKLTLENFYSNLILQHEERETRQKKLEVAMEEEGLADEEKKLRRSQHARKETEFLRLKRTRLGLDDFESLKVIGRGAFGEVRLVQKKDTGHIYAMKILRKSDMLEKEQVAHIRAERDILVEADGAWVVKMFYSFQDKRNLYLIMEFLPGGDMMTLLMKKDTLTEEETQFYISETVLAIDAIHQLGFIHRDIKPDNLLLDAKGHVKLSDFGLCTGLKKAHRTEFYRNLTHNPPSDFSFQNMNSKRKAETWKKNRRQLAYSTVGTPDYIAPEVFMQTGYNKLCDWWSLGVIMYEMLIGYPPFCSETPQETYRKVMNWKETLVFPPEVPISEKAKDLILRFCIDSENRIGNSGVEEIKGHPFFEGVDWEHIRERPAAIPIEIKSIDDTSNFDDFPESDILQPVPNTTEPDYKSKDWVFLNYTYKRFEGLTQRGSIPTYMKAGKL
Method in brief: as §1

[1] = read-out: % Enzyme Activity (relative to DMSO controls) Run 1
[2] = read-out: % Enzyme Activity (relative to DMSO controls) Run 2

T1 sequence (Q00535 whole entry): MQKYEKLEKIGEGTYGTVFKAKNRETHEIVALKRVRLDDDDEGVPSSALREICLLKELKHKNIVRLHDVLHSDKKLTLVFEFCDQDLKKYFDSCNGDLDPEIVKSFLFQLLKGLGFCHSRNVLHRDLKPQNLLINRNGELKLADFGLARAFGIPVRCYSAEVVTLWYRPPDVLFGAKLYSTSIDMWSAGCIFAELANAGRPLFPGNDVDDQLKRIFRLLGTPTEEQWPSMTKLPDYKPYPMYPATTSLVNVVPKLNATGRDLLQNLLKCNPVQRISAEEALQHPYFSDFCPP
T1 sequence (Q15078 2-307 partner limits assumed): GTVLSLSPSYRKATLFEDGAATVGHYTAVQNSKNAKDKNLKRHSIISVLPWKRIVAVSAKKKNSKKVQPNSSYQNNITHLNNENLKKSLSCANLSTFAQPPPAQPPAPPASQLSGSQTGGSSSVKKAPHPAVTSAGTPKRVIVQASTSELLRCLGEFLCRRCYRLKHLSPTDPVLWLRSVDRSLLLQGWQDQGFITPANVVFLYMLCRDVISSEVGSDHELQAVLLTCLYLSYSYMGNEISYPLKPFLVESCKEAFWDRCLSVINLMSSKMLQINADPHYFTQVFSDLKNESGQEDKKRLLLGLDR

C=CC(=O)Nc1cccc(Nc2nc(Nc3ccc(OCCOC)c(F)c3)ncc2F)c1 [Compound 2]
inhibition at 3 µM (CDK5/p35): 4.49% | remaining activity at 3 µM (CDK5/p35; [1]): 95% | remaining activity at 3 µM (CDK5/p35; [2]): 96.1% | inhibition at 3 µM (CDK6/cyclin D1): -0.92% | remaining activity at 3 µM (CDK6/cyclin D1; [1]): 101% | remaining activity at 3 µM (CDK6/cyclin D1; [2]): 100% | inhibition at 3 µM (EPHA4): 9.09% | remaining activity at 3 µM (EPHA4; [1]): 92.9% | remaining activity at 3 µM (EPHA4; [2]): 89% | inhibition at 3 µM (GRK1): -3.47% | remaining activity at 3 µM (GRK1; [1]): 104% | remaining activity at 3 µM (GRK1; [2]): 103% | inhibition at 3 µM (NEK11): 7.32% | remaining activity at 3 µM (NEK11; [1]): 92.5% | remaining activity at 3 µM (NEK11; [2]): 92.8% | inhibition at 3 µM (RET): 86.6% | remaining activity at 3 µM (RET; [1]): 13.2% | remaining activity at 3 µM (RET; [2]): 13.6% | inhibition at 3 µM (STK38L/NDR2): -1.33% | remaining activity at 3 µM (STK38L/NDR2; [1]): 107% | remaining activity at 3 µM (STK38L/NDR2; [2]): 96%
